The record followed here is ChEMBL document CHEMBL3244035, “Synthesis and hypoglycemic activity of 4-substituted 3-mercaptopicolinic acids” (J Med Chem, 1977).

Active and inactive are the calls of the source. The calls are words filed in the database; no cut-off is given here.

This assay has as its system Rattus norvegicus. Nature of the assay: Hypoglycemic activity in 48 hrs fasted rat assessed as reduction in blood glucose at 150 mg/kg, po measured 1 to 4 hrs post challenge. It counts as functional, organism-based. Set-up: dose 150 mg/kg.

With `COc1ccnc(C(=O)O)c1S`, the result was inactive.

For `O=C(O)c1nccc(Oc2ccccc2)c1S`, the outcome was inactive. Take `Nc1ccnc(C(=O)O)c1S`: the outcome was inactive. In the case of `O=C(O)c1nccc(S)c1S`, the result was inactive. As to `CSc1ccnc(C(=O)O)c1S`, the outcome was inactive. On to `CCc1ccnc(C(=O)O)c1S`, for which the outcome was inactive. For the compound `O=C(O)c1nccc(Cl)c1S`, the outcome was inactive.
